According to EP1574213B1, “Use of histone deacetylase inhibitors for increasing therapeutic gain in radiotherapy and chemotherapy” (Asan Laboratories Company (Cayman), Limited, priority 2004, dated 2005):

Tests used:
[1] = system: TGF-β1, TGF-β2, and TNF-α; assay: Cytokine mRNA in irradiated skin (RNase protection assay, northern blot); assay type: in vivo, rats; conditions: for radiation-induced TGF-β1, TGF-β2, and TNF-α expression: northern blot, irradiated skin
Method: (§1) The timing of the peak appearance of TGF-β1, TGF-β2, and TNF-α expression levels induced by radiation correlated with the beginning of development of radiation-induced damage (FIG. 4). Levels of TGF-β1, TGF-β2, TGF-β3, and TNF-α mRNA were assessed using a multiple cytokine RNase protection assay kit (Riboquant; Pharmingen, San Diego, CA) that contained a template set to allow for the generation of a 32P-labeled antisense RNA probe set that hybridized with the target mRNA for TGF-β1, TGF-β2, TGF-β3, TNF-α, and internal control GAPDH. After hybridization of labeled probe to target RNA, unprotected RNA was digested by a ribonuclease (RNase), and protected RNA fragments were resolved on a 6% polyacrylamide gel and recorded by phosphorimaging (Molecular Dynamics Corp., Sunnyvale, CA). Densitometry was used to quantify the amount of each mRNA species and was normalized to the internal control GAPDH.
The means of skin scores for skin reactions from five rats in each group were calculated. The average levels of cytokine/growth factor mRNA from three skin samples in each group were normalized to the internal control GAPDH and expressed as a ratio to the average level in time-matched control groups. The Mann-Whitney test (Stata Statistical Software, College Station, TX) was used to determine statistical significance at the p < 0.05 level for differences in average skin scores and in average mRNA levels, respectively, between treated and control rats.
Total RNA was isolated from frozen skin samples using Trigent (Molecular Research Center Inc., Cincinnati, OH). Total RNA (30 µg) was electrophoresed in a denaturing formaldehyde-agarose gel, blotted onto Hybond N (Amersham, Amersham, UK), and fixed by ultraviolet (UV) irradiation. The membrane was incubated with 32P-labeled probes, as described below, in Rapid-hyb buffer (Amersham). […]

[2] = system: irradiated skin; assay: Radiation-induced skin reaction after 40Gy, gross skin score and H&E histology; assay type: in vivo, Sprague Dawley (SD) rats; conditions: for radiation-induced skin damage including acute dermatitis and desquamation, and late fibrosis, ulceration and necrosis: in words
Method: Adult female Sprague Dawley (SD) rats were purchased from the animal center of the National Science Council of Taiwan, and weighed 250-300g at the time of irradiation. Each rat was caged alone and allowed chow and water. They were anesthetized with pentobarbital 50mg/kg i.p. before irradiation. The skin over gluteal area was shaved completely and radiation fields with 2-cm diameter were outlined with a marking pen just prior to irradiation. An electron beam with 6MeV energy produced by a linear accelerator was used. The dose was delivered on Day 0 at 4Gy/min up to 40Gy to the prepared area. Each group treated with a histone deacetylase inhibitor was further divided into three subgroups animals (5 each) : one subgroup treated with skin irradiation followed by vehicle, another with skin irradiation followed by a histone deacetylase inhibitor, and the third with skin irradiation only. Then vaseline (negative control), madecassol ointment (positive control), or either vehicles or the 1% phenylbutyrate cream, 1% valproic acid cream, or 0.1% trichostatin A ointment were applied topically to the irradiated skin twice daily from Day 1 to Day 90 after irradiation. The mean dosage for each treatment in the respective groups was 16mg vaseline per cm^2 skin, 16mg madecassol per cm^2 skin, 50mg phenylbutyrate per cm^2 skin, 50mg valproic acid per cm^2 skin, 5mg trichostatin A per cm^2 skin, and an equivalent amount of the vehicle base for the control groups. The gross skin reactions were evaluated in all rats. Acute skin reactions were evaluated and scored every other day until the 90th day after irradiation using the modified skin score system (Abe Y. and Urano M. Fraction size-dependent acute skin reaction of mice after multiple twice-a-day doses. International Journal of Radiation Oncology, Biology, Physics. 18(2):359-64, 1990): 0=normal, 0.5=slight epilation, 1.0=epilation in about 50% of the radiated area, 1.5=epilation in greater than 50% of the area, 2.0=complete epilation, 2.5=complete epilation with definitive edema or dry desquamation in more than 50% of the area, 3.0=moist desquamation in a small area, 3.5=moist desquamation in most of the area.
The skin score increases with more severe skin reaction. On Day 11, the skin reactions in the groups treated with madecassol (positive control) or histone deacetylase inhibitors were less marked than those in the negative or vehicle control groups. By day 21, the epilation in the negative or vehicle groups had progressed to wet desquamation in most areas whereas in the madecassol or histone deacetylase inhibitor groups, it improved, and epithelium healing had begun quickly. […]

[3] = system: EBV thymidine kinase; assay: EBV thymidine kinase activity assay; assay type: cell-based, Epstein-Barr virus (EBV); conditions: 1 nM for 48 hours; EBV-positive Daudi cells
Method: For EBV thimidine kinase activity assay, an equal amount of cytosol fraction was incubated with reaction buffer (50mM Tris-HCl pH 7.4, 1mg/ml BSA, 3mM creatine phosphate, 11.2U/ml creatine phosphokinase, 0.1µm [3H-8]-GCV (specific activity 13.5 Ci/mmol), 2.5mM ATP, 2.5mM MgCl2, 10mM NaF, 10mM DTT) at 37°C for 30 mins. The reaction mixtures were added on WhatmanR DE-81 ion exchange chromatography papers, which were then washed with 1.5mM NH4COOH three times to remove unphosphorylated form of [3H-8]-GCV. After air dry, these papers were incubated with liquid scintillation cocktail overnight. The phosphorylation form of [3H-8]-GCV bound on WhatmanR DE-81 ion exchange chromatography paper was measured by LS6500 scintillation counter (Beckman).
The combination of TSA, GCV and radiation produced selectively maximal death in EBV-positive cells but not in EBV-negative cells (FIG. 11B). Daudi cells (EBV+) and HL-60 (EBV-) were treated with ganciclovir (GCV) (10 µg/ml) and /or trichostatin A (TSA) (1 nM) for 48 hours, then radiated with or without 1 Gy radiation (RT). Viable cells were counted 1 week later.

[4] = system: CNE2 nasopharyngeal carcinoma cells; assay: Tumor radiosensitization, colony formation; assay type: cell-based; conditions: for Radiation enhancement ratio (RER): 60 minutes prior to radiation, at 10% survival
Method: Radiation enhancement ratio (RER) is used to calculate the ratio of radiation doses that give the same effect. RER= (Radiation dose without drug treatment at 10% survival fraction)/(Radiation dose with drug treatment at 10% survival fraction).
Valproic acid (0.1 mM or 0.5 mM) was added in CNE2 nasopharyngeal carcinoma cells 60 minutes prior to radiation with radiation dose from 2 to 16 Gy, then washed out. After one week, colonies containing more than 50 cells were counted.

[5] = system: TGF-beta protein; assay: Immunofluorescence with anti-TGF-beta1, 2 antibodies in irradiated skin; assay type: in vivo, rats; conditions: Day 180
From the text: The same pathological sections in example 4 were subjected to immunofluorescence with the anti-TGF-beta1, 2 antibodies.

[6] = system: CT-26; assay: Cutaneous tumor growth, topical treatment, CT-26; assay type: in vivo, BALB/c mice; conditions: 4 weeks; 200 mg/mouse twice per day topically
Method: (§2) The syngeneic carcinoma cells 1MEA7R.1 and CT-26 (purchased from American Type Culture Collection, Manassas, VA) were subcutaneously injected into the flank areas of female BALB/c mice. The tumor was allowed to a maximum dimension of 0.5 cm. Topical HDAC inhibitors or vehicle was applied at a dose of 200 mg/mouse to cover the whole tumor surface and surrounding skin twice per day for 4 weeks. The tumor size was calculated weekly with a caliper according to the formula ab2/2, where a and b are the larger and smaller diameters (in centimeters), respectively.
(§3) The topical PB formulation was show to have antitumor effects. […] Cutaneous tumors were allowed to grow to the largest dimension 0. 5 cm (FIG. 8D), and PB was topically applied to the tumor surface at 200 mg/mouse twice per day. By 4 weeks, the tumor sizes of 1MEA7R.1 and CT-26 carcinomas in the placebo groups were almost 6- and 1.6-fold larger than those in the PB-treated groups, respectively (FIGS. 8B-8C).

[7] = system: TGF-β3; assay: TGF-β3 mRNA in irradiated skin (RNase protection assay); assay type: in vivo, rats; conditions: Vaseline, vehicle, or PB
Method: as §1
The means of skin scores for skin reactions from five rats in each group were calculated. The average levels of cytokine/growth factor mRNA from three skin samples in each group were normalized to the internal control GAPDH and expressed as a ratio to the average level in time-matched control groups. […]

[8] = system: 1MEA7R.1; assay: Cutaneous tumor growth, topical treatment, 1MEA7R.1; assay type: in vivo, BALB/c mice; conditions: 4 weeks; 200 mg/mouse twice per day topically
Method: as §2, §3

[9] = system: TNF-α; assay: Immunohistochemistry of TNF-alpha in irradiated skin; assay type: in vivo, rats; conditions: Day 270
From the text: The decrease in late radiation-induced skin damage by topical PB was consistent with the suppression of TNF-α expression (FIG. 6).

[10] = system: syngeneic carcinoma cells 1MEA7R.1 and CT-26; assay: Direct antitumor effect on cutaneous tumor growth (both tumors, summary); assay type: in vivo, BALB/c mice; conditions: withdrawal after 5 weeks of treatment
Method: as §2, with “Topical HDAC inhibitors or vehicle was applied at a dose of 200 mg/mouse to cover the whole tumor surface and surrounding skin twice per day for 4 weeks.” left out
as §3
The histological findings on skin specimens from 5 irradiated rats in each group are represented as follows: A, subepithelial swelling. B, dry desquamation in more than 50% of the area. C, wet desquamation in more than 50% of the area. D, atrophy of epidermis in most areas. E, atrophy of skin appendages in most areas. F, increased thickness of epithelium with more cell layers. G, increased collagen deposition, more vessel density, and increased thickness of dermis. H, chronic ulceration, necrosis, bullae formation, and more inflammatory cell infiltrate. […]

[11] = system: radiation-induced tumors; assay: Late radiation-induced skin tumor formation; assay type: in vivo, rats; conditions: 90 weeks, irradiated groups
From the text: The decrease of TGF-β expression caused by PB treatment might decrease the incidence of late radiation-induced tumorigenesis. […] The histology of radiation-induced tumors included fibroma, spindle cell sarcoma, basal cell carcinoma, and squamous cell carcinoma.

[12] = system: p21Cip1; assay: p21Cip1 protein level in carcinoma cells in vitro; assay type: cell-based; conditions: BNL 1MEA7R.1 and CT-26 carcinoma cells; 4 mM PB

SMILES | radiation-induced TGF-β1, TGF-β2, and TNF-α expression [1] | radiation-induced skin damage including acute dermatitis and desquamation, and late fibrosis, ulceration and necrosis [2] | EBV thymidine kinase activity [3] | Radiation enhancement ratio (RER) ([4]; 0.1 mM) | Radiation enhancement ratio (RER) ([4]; 0.5 mM) | plating efficiency ([4]; versus control) | expression of TGF-beta [5] | tumor size in the placebo group relative to the PB-treated group [6] [fold] | differences in TGF-β3 mRNA levels between irradiated groups [7] | mRNA levels of TGF-β1, TGF-β2, and TNF-α ([1]; Day 28-35 after irradiation) | tumor size in the placebo group relative to the PB-treated group [8] [fold] | rats showing chronic ulceration, necrosis, bullae formation, and inflammatory cell infiltration ([2]; Day 270) | TNF-α expression [9] | time to reach the same size as control or placebo tumors after withdrawal [10] [weeks] | cumulative tumor incident [11] [%] | p21Cip1 [12]
CC(/C=C/C(=O)NO)=C\[C@@H](C)C(=O)c1ccc(N(C)C)cc1 [TSA, Trichostatin A] | decreased | suppressing | up-regulated | – | – | – | – | – | – | – | – | – | – | – | – | –
CCCC(CCC)C(=O)O [Valproic acid] | decreased | suppressing | – | 1.2 | 1.7 | – | – | – | – | – | – | – | – | – | – | –
O=C(O)CCCc1ccccc1 [PB, Phenylbutyrate] | – | suppressing | – | – | – | the same | suppressed effectively | ~1.6 | No significant differences | returned to the non-irradiated control levels | ~6 | zero of five | suppression | ≤ 2 | 0 | up-regulation
